This is an account of results in patent US20050182252A1, “Novel 2'-C-methyl nucleoside derivatives” (priority 2004, published 2005).

One may read the melting point as the temperature of the solid-liquid transition.

Structures can show the parent of a compound that is named as a salt.

On the set-up of data set [1]: species or system C57BL/6 mice. The settings on record: in vivo, iv, 5.5 mg/kg; for Liver NTP AUC: mouse. As for the experimental part: The liver specificity of the compound 19 prodrug was compared relative to the parent nucleoside, 2′-C-methylguanosine, and for compound 21.1 prodrug relative to its parent nucleoside, 2′-C-methyladenosine, by measuring the generation of NTP in the liver compared to nucleoside in the plasma.
Compound 19 or 2′-C-methylguanosine were administered intraperitoneally to C57BL/6 mice at a dose of 30 mg/kg based on nucleoside equivalents (30 mg/kg 2′-C-methylguanosine and 53.27 mg/kg compound 19). Compound 21.1 or 2′-C-methyladenosine were administered intravenously to C57BL/6 mice at dose of about 5.5 mg/kg nucleoside equivalents (5.5 mg/kg 2′-C-methyladenosine and 10 mg/kg compound 21.1). Plasma concentrations of 2′-C-methylguanosine, compound 19, 2′-C-methyladenosine, and compound 21.1 were determined by HPLC-UV and the liver concentrations of the 5′-triphosphate of 2′-C-methylguanosine and 2′-C-methyladenosine were measured by LC-MS using the standard ion-pairing chromatography method for triphosphate as described in Example E. Conventional SAX HPLC-UV could not differentiate between endogenous GTP and 2′-C-methylguanosine triphosphate. Since an authentic standard of 2′-C-methylguanosine triphosphate was not available, the liver concentrations of the nucleotide were approximated as described in Example E.

In the case of `C[C@@]1(O)[C@H](O)[C@@H](CO)O[C@H]1n1cnc2c(N)ncnc21` [2′-C-methyladenosine, reference compound], the “Plasma Nucleoside AUC” value in data set [1] (C57BL/6, mouse) was 26.8 µM·h. In data set [1], the “Liver NTP AUC” value came to 119 nmol·h/g.
Regarding `C[C@@]1(O)[C@H](O)[C@@H](CO[P@@]2(=O)OCC[C@@H](c3ccncc3)O2)O[C@H]1n1ccc2c(=O)[nH]c(N)nc21` [Compound 17.13, 2-amino-7-(cis-5-O-[4-(S)-(pyridin-4-yl)-2-oxo-1,3,2-dioxaphosphorinan-2-yl]-2-C methyl-beta-D-ribofuranosyl)-7H-pyrrolo[2,3-d]pyrimidin-4(3H)-one], the melting point lay in the range of 138 to 141 °C.
The same measure, in the same setting: the result for `C[C@@]1(O)[C@H](O)[C@@H](COP2(=O)OCC[C@@H](c3cccc(F)c3)O2)O[C@H]1n1ccc2c(=O)[nH]c(N)nc21` (stereo partly drawn) [Compound 17.14, 2-amino-7-(cis-5′-O-[4-(3-fluorophenyl)-2-oxo-1,3,2-dioxaphosphorinan-2-yl]-2-C methyl-beta-D-ribofuranosyl)-7H-pyrrolo[2,3-d]pyrimidin-4(3H)-one] reads 170 °C; that for `C[C@@]1(O)[C@H](O)[C@@H](COP2(=O)OCC[C@@H](c3ccc(F)c(Br)c3)O2)O[C@H]1n1ccc2c(=O)[nH]c(N)nc21` (stereo partly drawn) [Compound 17.15, 2-amino-7-(cis-5′-O-[4-(3-bromo-4-fluoro-phenyl)-2-oxo-1,3,2-dioxaphosphorinan-2-yl]-2′-C methyl-beta-D-ribofuranosyl)-7H-pyrrolo[2,3-d]pyrimidin-4(3H)-one], 175 to 179 °C.
Same read-out and setting: the result for `C[C@@]1(O)[C@H](O)[C@@H](CO[P@]2(=O)OCC[C@H](c3ccccc3)O2)O[C@H]1n1ccc2c(=O)[nH]c(N)nc21` [Compound 17.16, 2-amino-7-(cis-5-O-[4-(R)-phenyl-2-oxo-1,3,2-dioxaphosphorinan-2-yl]-2-C methyl-beta-D-ribofuranosyl)-7H-pyrrolo[2,3-d]pyrimidin-4(3H)-one] reads 128 to 133 °C; that for `CO[C@@H]1COP(=O)(OC[C@H]2O[C@@H](n3ccc4c(=O)[nH]c(N)nc43)[C@](C)(O)[C@@H]2O)O[C@@H]1c1cccc(Cl)c1` (some centres unmarked) [Compound 17.19], 148 to 151 °C.
Same read-out and setting: the result for `C[C@@]1(O)[C@H](O)[C@@H](COP2(=O)OCC[C@H](c3ccccc3Br)O2)O[C@H]1n1ccc2c(=O)[nH]c(N)nc21` (stereo partly drawn) [Compound 17.21, 2-amino-7-(cis-5′-O-[4-(2-bromophenyl)-2-oxo-1,3,2-dioxaphosphorinan-2-yl]-2′-C methyl-beta-D-ribofuranosyl)-7H-pyrrolo[2,3-d]pyrimidin-4(3H)-one] reads 180 °C; that for `C[C@@]1(O)[C@H](O)[C@@H](COP2(=O)OCC[C@H](c3cc(C(F)(F)F)cc(C(F)(F)F)c3)O2)O[C@H]1n1ccc2c(=O)[nH]c(N)nc21` (some centres unmarked) [Compound 17.23], 155 to 175 °C; that for `C[C@@]1(O)[C@H](O)[C@@H](COP2(=O)OCC[C@H](c3cccc(C(F)(F)F)c3)O2)O[C@H]1n1ccc2c(=O)[nH]c(N)nc21` (some centres unmarked) [Compound 17.24], 145 to 165 °C.
`C[C@@]1(O)[C@H](O)[C@@H](COP2(=O)OCC[C@H](c3ccc(Cl)cc3Cl)O2)O[C@H]1n1ccc2c(=O)[nH]c(N)nc21` (stereo partly drawn) [Compound 17.25, 2-amino-7-(cis-5-O-[4-(2,4-dichlorophenyl)-2-oxo-1,3,2-dioxaphosphorinan-2-yl]-2-C methyl-beta-D-ribofuranosyl)-7H-pyrrolo[2,3-d]pyrimidin-4(3H)-one] showed a melting point of 175 °C.
On the same count and under the same terms, then `C[C@@]1(O)[C@H](O)[C@@H](COP2(=O)OCCC(c3cccc(Cl)c3)O2)O[C@H]1n1cnc2c(N)ncnc21` (some centres unmarked) [Compound 18, 5′-O-[4-(3-chlorophenyl)-2-oxo-1,3,2-dioxaphosphorinan-2-yl]-2′-C-methyladenosine], with 153 °C.
`C[C@@]1(O)[C@H](O)[C@@H](COP2(=O)OCC[C@@H](c3cccc(Cl)c3)O2)O[C@H]1n1cnc2c(N)ncnc21` (stereo partly drawn) [Compound 21.1, cis-5′-O-[4-(S)-(3-chlorophenyl)-2-oxo-1,3,2-dioxaphosphorinan-2-yl]-2′-C-beta-methyl-adenosine trifluoroacetic acid salt]: the “Liver NTP AUC” value in data set [1] amounted to 502 nmol·h/g.
`C[C@@]1(O)[C@H](O)[C@@H](COP2(=O)OCC[C@@H](c3cccc(C#N)c3)O2)O[C@H]1n1cnc2c(N)ncnc21` (stereo partly drawn) [Compound 21.2, cis-5′-O-[4-(3-cyanophenyl)-2-oxo-1,3,2-dioxaphosphorinan-2-yl]-2′-C-beta-methyl-adenosine] showed a melting point of 153 to 156 °C.
Still for that read-out and setting: then `C[C@@]1(O)[C@H](O)[C@@H](COP2(=O)OCC[C@@H](c3cc(F)ccc3F)O2)O[C@H]1n1cnc2c(N)ncnc21` (stereo partly drawn) [Compound 21.3, cis-5′-O-[4-(2,5difluorophenyl)-2-oxo-1,3,2-dioxaphosphorinan-2-yl]-2′-C-beta-methyl-adenosine], with 75 to 78 °C.
On the same count and under the same terms, the result for `C[C@@]1(O)[C@H](O)[C@@H](COP2(=O)OCC[C@@H](c3cc(F)cc(F)c3)O2)O[C@H]1n1cnc2c(N)ncnc21` (stereo partly drawn) [Compound 21.4, cis-5′-O-[4-(3,5-difluorophenyl)-2-oxo-1,3,2-dioxaphosphorinan-2-yl]-2′-C-beta-methyl-adenosine] reads 120 to 123 °C; that for `C[C@@]1(O)[C@H](O)[C@@H](COP2(=O)OCC[C@@H](c3cccc(Br)c3)O2)O[C@H]1n1cnc2c(N)ncnc21` (stereo partly drawn) [Compound 21.6, cis-5′-O-[4-(3-bromophenyl)-2-oxo-1,3,2-dioxaphosphorinan-2-yl]-2′-C-beta-methyl adenosine], 108 to 110 °C; that for `C[C@@]1(O)[C@H](O)[C@@H](COP2(=O)OCC[C@@H](c3cccnc3)O2)O[C@H]1n1cnc2c(N)ncnc21` (stereo partly drawn) [Compound 21.9, cis-5′-O-[4-(pyridine-3-yl)-2-oxo-1,3,2-dioxaphosphorinan-2-yl]-2′-C-beta-methyl-adenosine], 137 to 140 °C.
Same read-out and setting: the result for `CC(=O)O[C@@H]1[C@@H](COP2(=O)OCC[C@H](c3ccncc3)O2)O[C@@H](n2ccc3c(N)ncnc32)[C@]1(C)O` (stereo partly drawn) [Compound 22.1, 4-amino-7-(3′-acetyl-cis-5′-O-[4-(S)-(pyridin-4-yl)-2-oxo-1,3,2-dioxaphosphorinan-2-yl]-2′-C-methyl-beta-D-ribofuranosyl)-7H-pyrrolo[2,3-d]pyrimidine] reads 182 to 185 °C; that for `CC(=O)O[C@@H]1[C@@H](COP2(=O)OCC[C@H](c3cccc(Cl)c3)O2)O[C@@H](n2ccc3c(N)ncnc32)[C@]1(C)O` (stereo partly drawn) [Compound 22.2, 4-amino-7-(3′-acetyl-cis-5′-O-[4-(S)-(3-chlorophenyl)-2-oxo-1,3,2-dioxaphosphorinan-2-yl]-2′-C-methyl-beta-D-ribofuranosyl)-7H-pyrrolo[2,3-d]pyrimidine], 90 to 93 °C.
In the case of `C[C@@]12OC(=O)O[C@@H]1[C@@H](COP1(=O)OCC[C@H](c3cccc(Cl)c3)O1)O[C@H]2n1ccc2c(N)ncnc21` (stereo partly drawn) [Compound 23.1, 4-amino-7-(2′,3′-carbonyl-cis-5′-O-[4-(S)-(3-chlorophenyl)-2-oxo-4,3,2-dioxaphosphorinan-2-yl]-2′-C-methyl-beta-D-ribofuranosyl)-7H-pyrrolo[2,3-d]pyrimidine], the melting point fell in the range of 127 to 130 °C.
Same read-out and setting: the result for `C[C@@]12OC(=O)O[C@@H]1[C@@H](COP1(=O)OCC[C@H](c3ccncc3)O1)O[C@H]2n1ccc2c(N)ncnc21` (stereo partly drawn) [Compound 23.2, 4-amino-7-(2′,3′-carbonyl-cis-5′-O-[4-(S)-(pyridin-4-yl)-2-oxo-1,3,2-dioxaphosphorinan-2-yl]-2′-C-methyl-beta-D-ribofuranosyl)-7H-pyrrolo[2,3-d]pyrimidine] reads 192 to 195 °C; that for `C[C@@]1(O)[C@H](O)[C@@H](CO)O[C@H]1n1ccc2c(N=[N+]=[N-])ncnc21` [Compound 25.1, 4-azido-7-(2′-C-methyl-beta-D-ribofuranosyl)-7H-pyrrolo[2,3-d]pyrimidine], 179 to 180 °C.
